# Laboratory results: patent publication US10273290B2, “Hydrocarbon double-stapled stabilized HIV-1 GP41 heptad repeat domain peptides” (DANA-FARBER CANCER INSTITUTE, INC., priority 2009, dated 2019)
# Bridge positions count the residues as written; N and C are the ends. Square brackets hold non-standard residues; d marks the D form. Peptide text beside a SMILES is read from it. S5 = C=CCCC[C@](C)(N)C(=O)O; Nle = CCCC[C@H](N)C(=O)O
# Tests used:
# HIV syncytia formation = experiment: HIV syncytial formation assay; format: cell-based, HIV-1
# Protocol: Functional assays can be used to evaluate the activity of the antibodies produced. In culture, multinucleated giant cells or “syncytia” form as a result of direct cell-cell fusion between HIV-1-infected and uninfected CD4-positive cells. In the syncytia formation assay, an indicator cell line expressing the CD4 receptor, and a fusogenic cell line that lacks the CD4 receptor but contains HIV-1 proteins on the surface, fuse to generate 70-100 multinucleated giant cells in culture within 48 h. Syncytia are then counted using an inverted microscope. The ability of structured gp41 peptides or antibodies targeted thereto to inhibit syncytia formation in a dose-responsive fashion is used as a functional measure of fusion inhibition, for which IC50s can be determined and compared with peptides T20 and T649, or established neutralization antibodies (Brenner, T. J., et al. The Lancet, 1991. 337(8748): p. 1001-1005; Madani, N., et al., Journal of Virology, 2007. 81(2): p. 532-538).
# The truncated Stabilized Alpha Helix (SAH)-gp41 compound, SAH-gp41(626-645)(A), was successfully synthesized in high yield.
# HIV-1 HXBc2 = experiment: HIV infectivity assay, HXBc2 strain; format: cell-based; conditions: compared to T20
# Description: Also the direct inhibitory activity of modified polypeptides and the antibodies targeted thereto can be quantified based upon their capacity to directly block HIV infection of CD4-positive and CCR5-expressing canine thymus cells. Recombinant HIV-1 viruses (eg. HXBc2, YU2, and additional strains available through the NIH AIDS Research and Reference Reagent Program) expressing firefly luciferase and containing the indicated envelope glycoproteins can be used to infect Cf2Th-CD4-CCR5/CXCR4 cells in the presence of serially diluted modified HIV-1 gp41 polypeptides or antibodies targeted thereto After 48 hours, the cells are lysed and luciferase activity is quantified (Si, Z. H., M. Cayabyab, and J. Sodroski, Journal of Virology, 2001. 75(9): p. 4208-4218 Si, Z. H., et al., PNAS, 2004. 101(14): p. 5036-5041). The identical experiment is performed with the amphotropic murine leukemia virus (AMLV), to monitor for any nonspecific effects of the modified polypeptides or antibodies. Similar control assays may be performed with unmodified or non-HIV polypeptides of the invention or control antibodies and are known in the art. […]
# [1] = Circular dichroism, α-helical content; format: physicochemical; conditions: comparative CD spectra, 20-mer residues 626-645
# How it was run: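 Far-UV CD spectra recorded at 20° C, 190-260 nm, 0.1 cm path, 10 accumulations. Percent α-helicity from mean residue ellipticity at 222 nm: 100×[θ]222/max[θ]222, with max[θ]222=−40,000×[1−(2.5/number of residues)]. Secondary-structure fractions also estimated by CDNN curve-fitting.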
smiles,measurement,setting,value
CCCC[C@H](NC(C)=O)C(=O)N[C@H](C(=O)N[C@@H](Cc1c[nH]c2ccccc12)C(=O)N[C@@]1(C)CCCC=CCCC[C@@](C)(C(=O)N[C@@H](CCC(=O)O)C(=O)N[C@H](C(=O)N[C@@H](CC(N)=O)C(=O)N[C@@H](CC(N)=O)C(=O)N[C@@H](Cc2ccc(O)cc2)C(=O)N[C@H](C(=O)N[C@@H](CO)C(=O)N[C@@H](CC(C)C)C(=O)N[C@H](C(=O)N[C@@H](Cc2c[nH]cn2)C(=O)N[C@@H](CO)C(=O)N[C@@H](CC(C)C)C(N)=O)[C@@H](C)CC)[C@@H](C)O)[C@@H](C)CC)NC(=O)[C@H](CC(=O)O)NC(=O)[C@H](Cc2c[nH]c3ccccc23)NC(=O)[C@H](CCC(=O)O)NC1=O)[C@@H](C)O [SAH-gp41(626-645)(A)] (Ac-[Nle]TW[S5]EWD[S5]EINNYTSLIHSL-NH2; staple 4-8; N-terminus assumed),"inhibitory activity in syncytial formation assay, in words",HIV syncytia formation,markedly enhanced inhibitory activity
same,"anti-HXBc2 activity, in words",HIV-1 HXBc2,significant anti-HXBc2 activity
same,α-helical content,[1],48%
